Assay results taken from the NIST ThermoML archive (doi:10.1016/j.jct.2007.07.002).
Values joined by “and” are separate entries in the source; they are usually repeats but may differ in a detail not shown here. Equal values may be shown once.

Details: Gas, double Helmholtz acoustic resonator

FS(F)(F)(F)(F)F [sulfur hexafluoride]
273.16 K
Details	kinematic viscosity [m2/s]	speed of sound [m/s]
290.38 kPa	7.19e-07	126.14
386.66 kPa	5.33e-07	124.46
492.4 kPa	4.1e-07	122.54
602.05 kPa	3.28e-07	120.45
712.29 kPa	2.72e-07	118.25
808.73 kPa	2.35e-07	116.21
903.28 kPa	2.24e-07	114.14
1000.5 kPa	1.81e-07	111.81

FC1(F)C(F)(F)C(F)(F)C1(F)F [octafluorocyclobutane]
Details	kinematic viscosity [m2/s]	speed of sound
300 K, 160.13 kPa	8.54e-07	109.85 m/s
300 K, 180.38 kPa	7.62e-07	109.17 m/s
300 K, 209.45 kPa	6.47e-07	108.13 m/s
300 K, 239.58 kPa	5.55e-07	107.04 m/s
310 K, 167.11 kPa	1.04e-06	111.91 m/s
310 K, 212.21 kPa	6.65e-07	110.44 m/s
310 K, 259.63 kPa	5.45e-07	108.88 m/s
310 K, 319.54 kPa	4.4e-07	106.84 m/s
310 K, 359.99 kPa	4.21e-07	105.47 m/s
315 K, 195.64 kPa	7.57e-07	112.23 m/s
315 K, 234.75 kPa	6.39e-07	111.1 m/s
315 K, 272.93 kPa	5.38e-07	109.92 m/s
315 K, 312.27 kPa	4.61e-07	108.66 m/s
315 K, 357.7 kPa	3.99e-07	107.16 m/s
315 K, 410.27 kPa	3.42e-07	105.34 m/s
320 K, 122.6 kPa	1.12e-06	115.18 m/s
320 K, 172.92 kPa	9.2e-07	113.83 m/s
320 K, 222.82 kPa	6.6e-07	112.47 m/s
320 K, 274.43 kPa	5.38e-07	111.03 m/s
320 K, 326.85 kPa	4.48e-07	109.44 m/s
320 K, 380.03 kPa	3.92e-07	107.76 m/s
320 K, 482.22 kPa	2.95e-07	104.31 m/s
330 K, 117.49 kPa	1.43e-06	117.54 m/s
330 K, 189.29 kPa	8.81e-07	115.79 m/s
330 K, 215.35 kPa	7.77e-07	115.12 m/s
330 K, 288.39 kPa	5.63e-07	113.25 m/s
330 K, 290.78 kPa	5.67e-07	113.11 m/s
330 K, 368.85 kPa	4.3e-07	111.06 m/s
330 K, 376.53 kPa	4.2e-07	110.78 m/s
330 K, 450.7 kPa	3.45e-07	108.71 m/s
330 K, 465.61 kPa	3.3e-07	108.18 m/s
330 K, 534.61 kPa	2.83e-07	106.13 m/s
330 K, 536.09 kPa	2.8e-07	106 m/s
330 K, 621.46 kPa	2.37e-07	103.15 m/s and 103.25 m/s
345.04 K, 244.86 kPa	7.3e-07	117.72 m/s
345.04 K, 347.35 kPa	5.14e-07	115.42 m/s
345.04 K, 445.79 kPa	3.86e-07	113.12 m/s
345.04 K, 553.32 kPa	3.05e-07	110.35 m/s
345.04 K, 652.37 kPa	2.52e-07	107.68 m/s
345.04 K, 772.66 kPa	2.06e-07	104.17 m/s
345.04 K, 881.89 kPa	1.76e-07	100.69 m/s
360 K, 216.1 kPa	9.15e-07	121.47 m/s
360 K, 407.3 kPa	4.74e-07	117.75 m/s
360 K, 609.73 kPa	3.2e-07	113.46 m/s
360 K, 802.73 kPa	2.19e-07	108.94 m/s
360 K, 1012.2 kPa	1.68e-07	103.47 m/s
360 K, 1203.3 kPa	1.35e-07	97.73 m/s
375 K, 183.85 kPa	1.12e-06	124.97 m/s
375 K, 378.87 kPa	5.53e-07	121.72 m/s
375 K, 568.99 kPa	3.54e-07	118.34 m/s
375 K, 758.63 kPa	2.59e-07	114.75 m/s
375 K, 960.1 kPa	2.05e-07	110.61 m/s
375 K, 1188.2 kPa	1.56e-07	105.48 m/s
375 K, 1402 kPa	1.28e-07	100.08 m/s
375 K, 1620.4 kPa	1.06e-07	93.75 m/s

O=C=O [carbon dioxide]
Details	kinematic viscosity [m2/s]	speed of sound [m/s]
220 K, 195.46 kPa	2.37e-06	231.7
220 K, 226.71 kPa	2e-06	231.05
220 K, 254.44 kPa	1.79e-06	230.53
220 K, 288.21 kPa	1.56e-06	229.81
220 K, 324.47 kPa	1.37e-06	229.07
220 K, 362.71 kPa	1.22e-06	228.29
220 K, 393.15 kPa	1.12e-06	227.64
220 K, 425.51 kPa	1.03e-06	226.95
220 K, 449.74 kPa	9.7e-07	226.42
220 K, 479.78 kPa	9.02e-07	225.76
235 K, 224.78 kPa	2.31e-06	238.87
235 K, 359.42 kPa	1.42e-06	236.69
235 K, 452.88 kPa	1.11e-06	235.12
235 K, 545.18 kPa	9.13e-07	233.52
235 K, 638.46 kPa	7.66e-07	231.87
235 K, 723.88 kPa	6.71e-07	230.31
235 K, 803.31 kPa	5.95e-07	228.81
250 K, 274.2 kPa	2.15e-06	245.57
250 K, 372.33 kPa	1.57e-06	244.25
250 K, 491.25 kPa	1.17e-06	242.62
250 K, 595.84 kPa	9.53e-07	241.15
250 K, 702.28 kPa	7.98e-07	239.62
250 K, 818.89 kPa	6.75e-07	237.9
250 K, 953.03 kPa	5.71e-07	235.87
250 K, 1060.2 kPa	5.07e-07	234.18
250 K, 1177.6 kPa	4.5e-07	232.28
250 K, 1291.6 kPa	4.03e-07	230.37
250 K, 1438.2 kPa	3.54e-07	227.81
270 K, 196.61 kPa	3.5e-06	255.77
270 K, 354.95 kPa	1.95e-06	254.13
270 K, 526.01 kPa	1.29e-06	252.3
270 K, 705.02 kPa	9.47e-07	250.33
270 K, 898.25 kPa	7.28e-07	248.16
270 K, 1076.5 kPa	5.99e-07	246.1
270 K, 1287.1 kPa	4.91e-07	243.58
270 K, 1446.7 kPa	4.31e-07	241.62
270 K, 1630 kPa	3.76e-07	239.29
270 K, 1846 kPa	3.26e-07	236.43
270 K, 2079.6 kPa	2.84e-07	233.19
270 K, 2316.1 kPa	2.49e-07	229.71
270 K, 2509.6 kPa	2.26e-07	226.69
285 K, 371.48 kPa	2.07e-06	260.81
285 K, 575.25 kPa	1.31e-06	258.96
285 K, 787.74 kPa	9.44e-07	257
285 K, 1013 kPa	7.22e-07	254.87
285 K, 1228.5 kPa	5.87e-07	252.79
285 K, 1500.4 kPa	4.72e-07	250.09
285 K, 1707.2 kPa	4.09e-07	247.98
285 K, 1947.2 kPa	3.52e-07	245.46
285 K, 2221.2 kPa	3.03e-07	242.48
285 K, 2559.7 kPa	2.58e-07	238.62
285 K, 2841.9 kPa	2.27e-07	235.23
285 K, 3057.8 kPa	2.06e-07	232.51
300 K, 313.43 kPa	2.72e-06	267.83
300 K, 531.89 kPa	1.58e-06	266.16
300 K, 748.54 kPa	1.11e-06	264.48
300 K, 993.26 kPa	8.26e-07	262.55
300 K, 1237 kPa	6.54e-07	260.6
300 K, 1526.1 kPa	5.22e-07	258.23
300 K, 1747.8 kPa	4.5e-07	256.38
300 K, 1991.5 kPa	3.9e-07	254.3
300 K, 2272.2 kPa	3.37e-07	251.86
300 K, 2577.9 kPa	2.92e-07	249.12
300 K, 2893.9 kPa	2.57e-07	246.21
300 K, 3145.8 kPa	2.33e-07	243.81
304.77 K, 317.81 kPa	2.78e-06	269.84
304.77 K, 527.05 kPa	1.65e-06	268.3
304.77 K, 745.25 kPa	1.15e-06	266.69
304.77 K, 979.77 kPa	8.66e-07	264.94
304.77 K, 1201.7 kPa	6.98e-07	263.26
304.77 K, 1478.9 kPa	5.59e-07	261.12
304.77 K, 1699.4 kPa	4.82e-07	259.4
304.77 K, 1950 kPa	4.14e-07	257.4
304.77 K, 2235.2 kPa	3.57e-07	255.09
304.77 K, 2552.7 kPa	3.07e-07	252.45
304.77 K, 2881 kPa	2.69e-07	249.66
304.77 K, 3135.9 kPa	2.44e-07	247.43
310 K, 342.08 kPa	2.66e-06	271.86
310 K, 552.05 kPa	1.63e-06	270.4
310 K, 773.76 kPa	1.15e-06	268.86
310 K, 1018 kPa	8.63e-07	267.13
310 K, 1259.3 kPa	6.9e-07	265.4
310 K, 1549 kPa	5.53e-07	263.3
310 K, 1786.6 kPa	4.75e-07	261.55
310 K, 2055.6 kPa	4.08e-07	259.54
310 K, 2363 kPa	3.49e-07	257.19
310 K, 2708.8 kPa	3e-07	254.5
310 K, 3078 kPa	2.6e-07	251.56
330 K, 201.27 kPa	5.17e-06	280.89
330 K, 402.42 kPa	2.55e-06	279.73
330 K, 626.86 kPa	1.62e-06	278.46
330 K, 846.53 kPa	1.19e-06	277.21
330 K, 1059.3 kPa	9.44e-07	276
330 K, 1333 kPa	7.43e-07	274.43
330 K, 1559.3 kPa	6.3e-07	273.12
330 K, 1813.1 kPa	5.37e-07	271.64
330 K, 2103.2 kPa	4.59e-07	269.94
330 K, 2423.4 kPa	3.94e-07	268.06
330 K, 2778.7 kPa	3.4e-07	265.94
330 K, 3067.6 kPa	3.06e-07	264.21
350 K, 234.16 kPa	4.97e-06	288.49
350 K, 440.84 kPa	2.61e-06	287.51
350 K, 660.1 kPa	1.73e-06	286.5
350 K, 905.02 kPa	1.25e-06	285.36
350 K, 1143.5 kPa	9.86e-07	284.25
350 K, 1347.8 kPa	8.31e-07	283.31
350 K, 1584.4 kPa	7.03e-07	282.2
350 K, 1873 kPa	5.9e-07	280.86
350 K, 2228.5 kPa	4.92e-07	279.21
350 K, 2447.3 kPa	4.45e-07	278.19
350 K, 2827.2 kPa	3.82e-07	276.43
350 K, 3133.8 kPa	3.42e-07	275.01
370 K, 335.49 kPa	3.82e-06	295.63
370 K, 537.7 kPa	2.37e-06	294.86
370 K, 749.31 kPa	1.7e-06	294.05
370 K, 964.83 kPa	1.31e-06	293.24
370 K, 1228.5 kPa	1.03e-06	292.24
370 K, 1449.3 kPa	8.66e-07	291.41
370 K, 1714.1 kPa	7.29e-07	290.42
370 K, 2019 kPa	6.15e-07	289.27
370 K, 2382.7 kPa	5.18e-07	287.93
370 K, 2771.7 kPa	4.42e-07	286.5
370 K, 3095.9 kPa	3.93e-07	285.31
